The results in this text go back to patent publication US20080065002A1, “Catheter for Localized Drug Delivery and/or Electrical Stimulation” (NEUROSYSTEC CORPORATION, priority 2006, published 2008).

A short description of this series: Expected decomposition of gacyclidine in solution. Type of series: physicochemical. The following applies: 72 hours at 37° C. The protocol:
The compatibility of gacyclidine in Ringer's Lactate (pH 6.0) in PTFE tubing at room temperature and at 37° C. was evaluated. Three sets of six segments each of PTFE tubing were used. Six samples were collected at each of three time intervals (6 hr, 23 hr and 72 hr). For each set of samples collected, three were incubated at ambient temperature and three were incubated at 37° C. A 16.5 ft. long segment of PTFE tubing (0.010″ ID, 0.018″ OD) was filled with 100 μM gacyclidine in Ringer's Lactate solution (pH 6.0) by use of a glass syringe. The two ends of the tubing were sealed with a paraffin wax vapor barrier. After incubating at room temperature or 37° C. for a specified time, the solution was pumped directly into a glass HPLC autosampler vial insert using an air-filled syringe. The PTFE tubing drug loss in 72 hours at room temperature was 1.3% and at 37° C. was 7.9%. […] The expected amount of decomposition expected in 72 hours at 37° C. is 8.0%.

Molecules are shown by their SMILES.

For `CC1CCCCC1(c1cccs1)N1CCCCC1` (stereo not shown) [gacyclidine], the “expected amount of decomposition” value worked out at 8.0%.
